These results are taken from BindingDB's records for doi:10.1016/S0960-894X(01)80156-6 (1994).

Where a SMILES comes first, the peptide text is derived from it. Bridges are numbered along the chain shown (N, C = ends). [ ]: non-standard residue; d: D form. Aoc = NCCCCCCCC(=O)O; Ava = NCCCCC(=O)O

This test has as its target Endothelin A receptor (Oryctolagus cuniculus). As to the kind of experiment: Binding affinity against Endothelin A receptor in rabbit renal artery vascular smooth muscle membrane (ET-A).

Regarding `CC[C@H](C)[C@H](NC(=O)[C@H](CC(=O)O)NC(=O)[C@H](CC(C)C)NC(=O)[C@H](Cc1cnc[nH]1)NC(=O)[C@@H]1CSSC[C@H](N)C(=O)N[C@@H](CO)C(=O)NCCCCCCCC(=O)N[C@@H](C(C)C)C(=O)N[C@@H](Cc2ccc(O)cc2)C(=O)N[C@@H](Cc2ccccc2)C(=O)N1)C(=O)N[C@H](C(=O)N[C@@H](Cc1c[nH]c2ccccc12)C(=O)O)[C@@H](C)CC` [Trp-Ile-Ile-Asp-Leu-Hisc(Cys-Ser-Aoa-Val-Tyr-Phe-Cys)] (H-CS[Aoc]VYFCHLDIIW-OH; disulfide 1-7), the IC50 was found to be 1800 nM.

For `CC[C@H](C)[C@H](NC(=O)[C@H](CC(=O)O)NC(=O)[C@H](CC(C)C)NC(=O)[C@H](Cc1c[nH]cn1)NC(=O)[C@@H]1CSSC[C@H](N)C(=O)N[C@@H](CO)C(=O)NCCCCC(=O)N[C@@H](C(C)C)C(=O)N[C@@H](Cc2ccc(O)cc2)C(=O)N[C@@H](Cc2ccccc2)C(=O)N1)C(=O)N[C@H](C(=O)N[C@@H](Cc1c[nH]c2ccccc12)C(=O)O)[C@@H](C)CC` [Trp-Ile-Ile-Asp-Leu-Hisc(Cys-Ser-Apa-Val-Tyr-Phe-Cys)] (H-CS[Ava]VYFCHLDIIW-OH; disulfide 1-7), the IC50 stood at 2500 nM. This IC50 and that of the compound before are within 1.5-fold of each other.

`CC[C@H](C)[C@H](NC(=O)[C@H](CC(=O)O)NC(=O)[C@H](CC(C)C)NC(=O)[C@H](Cc1c[nH]cn1)NC(=O)[C@@H]1CSSC[C@H](N)C(=O)N[C@@H](CO)C(=O)N[C@@H](CO)C(=O)N[C@@H](C(C)C)C(=O)N[C@@H](Cc2ccc(O)cc2)C(=O)N[C@@H](Cc2ccccc2)C(=O)N1)C(=O)N[C@H](C(=O)N[C@@H](Cc1c[nH]c2ccccc12)C(=O)O)[C@@H](C)CC` [Trp-Ile-Ile-Asp-Leu-Hisc(Cys-Ser-Ser-Val-Tyr-Phe-Cys)] (H-CSSVYFCHLDIIW-OH; disulfide 1-7) yielded an IC50 of 2000 nM.

In turn, `CC[C@H](C)[C@H](NC(=O)[C@H](CC(=O)O)NC(=O)[C@H](CC(C)C)NC(=O)[C@H](Cc1c[nH]cn1)NC(=O)[C@@H]1CSSC[C@H](N)C(=O)N[C@@H](CO)C(=O)N[C@@H](C(C)C)C(=O)N[C@@H](Cc2ccc(O)cc2)C(=O)N[C@@H](Cc2ccccc2)C(=O)N1)C(=O)N[C@H](C(=O)N[C@@H](Cc1c[nH]c2ccccc12)C(=O)O)[C@@H](C)CC` [Trp-Ile-Ile-Asp-Leu-Hisc(Cys-Ser-Val-Tyr-Phe-Cys)] (H-CSVYFCHLDIIW-OH; disulfide 1-6) registered an IC50 of 3800 nM.

For orientation: IC50 means the concentration that gives 50% inhibition. High values mean a need for much substance, low ones inhibition by little substance.
